Reference: patent US20250230193A1, “CYCLIC COMPOUND HAVING SELECTIVE KRAS INHIBITORY EFFECT ON HRAS AND NRAS” (CHUGAI SEIYAKU KABUSHIKI KAISHA, priority 2022, published 2025)
Where a SMILES comes first, the peptide text is derived from it. Bridges are numbered along the chain shown (N, C = ends). [ ]: non-standard residue; d: D form. The star is where a group is joined. hPhe(3-Cl-4-CF3) = N[C@@H](CCc1ccc(C(F)(F)F)c(Cl)c1)C(=O)O; NPrPhe(4-CF3) = CCCN[C@@H](Cc1ccc(C(F)(F)F)cc1)C(=O)O; NMeGly(cPent) = CN[C@H](C(=O)O)C1CCCC1; Pro(4,4-Me2) = CC1(C)CN[C@H](C(=O)O)C1; Pro(4S-Me) = C[C@@H]1CN[C@H](C(=O)O)C1; Hyp = O=C(O)[C@@H]1C[C@@H](O)CN1; NMeD = CN[C@@H](CC(=O)O)C(=O)O; NMeL = CN[C@@H](CC(C)C)C(=O)O; Morpholide = C1CN(*)CCO1; NMeA = CN[C@@H](C)C(=O)O; Ac5c = NC1(C(=O)O)CCCC1; Aze = O=C(O)[C@@H]1CCN1; Ac4c = NC1(C(=O)O)CCC1; NEtG = CCNCC(=O)O; Sar = CNCC(=O)O

How the values were obtained:
[1] = biological target: GDP-bound HRAS wild-type protein (Homo sapiens, UniProt P01112); assay: Binding to HRAS by surface plasmon resonance (SPR), Single Cycle Kinetics; settings: KD ratio HRAS/KRAS, SPR
Sequence of GDP-bound HRAS wild-type protein (P01112 whole entry): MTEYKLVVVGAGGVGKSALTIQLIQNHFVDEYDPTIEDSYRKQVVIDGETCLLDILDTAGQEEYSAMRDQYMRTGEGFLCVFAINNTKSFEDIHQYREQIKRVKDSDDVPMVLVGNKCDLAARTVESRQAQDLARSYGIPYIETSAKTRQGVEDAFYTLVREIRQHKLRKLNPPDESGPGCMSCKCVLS

[2] = biological target: GDP-bound NRAS wild-type protein (Homo sapiens, UniProt P01111); assay: Binding to NRAS by surface plasmon resonance (SPR), Single Cycle Kinetics; settings: KD ratio NRAS/KRAS, SPR
Sequence of GDP-bound NRAS wild-type protein (P01111 whole entry): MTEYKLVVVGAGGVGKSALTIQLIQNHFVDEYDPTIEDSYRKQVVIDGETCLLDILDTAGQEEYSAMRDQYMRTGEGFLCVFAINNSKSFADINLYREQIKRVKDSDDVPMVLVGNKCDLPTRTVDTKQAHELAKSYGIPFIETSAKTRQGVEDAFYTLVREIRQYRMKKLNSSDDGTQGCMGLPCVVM

SMILES	HRAS/KRAS (ratio of KD value with respect to GDP-bound HRAS wild-type protein to KD value with respect to KRAS) [1]	NRAS/KRAS (ratio of KD value with respect to GDP-bound NRAS wild-type protein to KD value with respect to KRAS) [2]
CCCN1C(=O)[C@@H]2CCN2C(=O)CN(C)C(=O)[C@H]([C@@H](C)CC)NC(=O)[C@H](CC(C)C)N(C)C(=O)C[C@@H](C(=O)N(C)C)N(C)C(=O)[C@H](C2CCCC2)N(C)C(=O)C2(CCCC2)NC(=O)[C@@H]2C[C@@H](OCC)CN2C(=O)[C@H](CCc2ccc(C(F)(F)F)c(Cl)c2)NC(=O)CN(C)C(=O)[C@@H]1Cc1ccc(C(F)(F)F)cc1 [PP0444] ([NMeL]I[Sar][Aze][NPrPhe(4-CF3)][Sar][hPhe(3-Cl-4-CF3)][Hyp](Et)[Ac5c][NMeGly(cPent)][NMeD]-NMe2; lactam N-11)	C (A compound having a KD ratio of 0.1 or more and less than 3 is denoted as C)	C (A compound having a KD ratio of 0.1 or more and less than 3 is denoted as C)
CCCN1C(=O)[C@@H]2CCN2C(=O)CN(C)C(=O)[C@H]([C@@H](C)CC)NC(=O)[C@H](CC(C)C)N(C)C(=O)C[C@@H](C(=O)N(C)C)N(C)C(=O)[C@H](C2CCCC2)N(C)C(=O)C2(CCC2)NC(=O)[C@@H]2C[C@@H](OCC)CN2C(=O)[C@H](CCc2ccc(C(F)(F)F)c(Cl)c2)NC(=O)CN(C)C(=O)[C@@H]1Cc1ccc(C(F)(F)F)cc1 [PP0445] ([NMeL]I[Sar][Aze][NPrPhe(4-CF3)][Sar][hPhe(3-Cl-4-CF3)][Hyp](Et)[Ac4c][NMeGly(cPent)][NMeD]-NMe2; lactam N-11)	C (A compound having a KD ratio of 0.1 or more and less than 3 is denoted as C)	C (A compound having a KD ratio of 0.1 or more and less than 3 is denoted as C)
CCCN1C(=O)CN(C)C(=O)CN(C)C(=O)[C@H]([C@@H](C)CC)NC(=O)[C@H](CC(C)C)N(C)C(=O)C[C@@H](C(=O)N2CCOCC2)N(C)C(=O)[C@H](C2CCCC2)N(C)C(=O)C2(CCCC2)NC(=O)[C@@H]2CC(C)(C)CN2C(=O)[C@H](CCc2ccc(C(F)(F)F)c(Cl)c2)NC(=O)CN(C)C(=O)[C@@H]1Cc1ccc(C(F)(F)F)cc1 [PP0446] ([NMeL]I[Sar][Sar][NPrPhe(4-CF3)][Sar][hPhe(3-Cl-4-CF3)][Pro(4,4-Me2)][Ac5c][NMeGly(cPent)][NMeD]-Morpholide; lactam N-11)	C (A compound having a KD ratio of 0.1 or more and less than 3 is denoted as C)	B (a compound having 3 or more and less than 10 is denoted as B)
CCCN1C(=O)CN(C)C(=O)CN(C)C(=O)[C@H]([C@@H](C)CC)NC(=O)[C@H](CC(C)C)N(C)C(=O)C[C@@H](C(=O)N2CCOCC2)N(C)C(=O)[C@H](C2CCCC2)N(C)C(=O)C2(CCCC2)NC(=O)[C@@H]2C[C@H](C)CN2C(=O)[C@H](CCc2ccc(C(F)(F)F)c(Cl)c2)NC(=O)CN(C)C(=O)[C@@H]1Cc1ccc(C(F)(F)F)cc1 [PP0447] ([NMeL]I[Sar][Sar][NPrPhe(4-CF3)][Sar][hPhe(3-Cl-4-CF3)][Pro(4S-Me)][Ac5c][NMeGly(cPent)][NMeD]-Morpholide; lactam N-11)	C (A compound having a KD ratio of 0.1 or more and less than 3 is denoted as C)	B (a compound having 3 or more and less than 10 is denoted as B)
CCCN1C(=O)CN(C)C(=O)CNC(=O)[C@H]([C@@H](C)CC)NC(=O)[C@H](CC(C)C)N(C)C(=O)C[C@@H](C(=O)N2CCOCC2)N(C)C(=O)[C@H](C2CCCC2)N(C)C(=O)C2(CCCC2)NC(=O)[C@@H]2CC(C)(C)CN2C(=O)[C@H](CCc2ccc(C(F)(F)F)c(Cl)c2)NC(=O)CN(C)C(=O)[C@@H]1Cc1ccc(C(F)(F)F)cc1 [PP0448] ([NMeL]IG[Sar][NPrPhe(4-CF3)][Sar][hPhe(3-Cl-4-CF3)][Pro(4,4-Me2)][Ac5c][NMeGly(cPent)][NMeD]-Morpholide; lactam N-11)	C (A compound having a KD ratio of 0.1 or more and less than 3 is denoted as C)	B (a compound having 3 or more and less than 10 is denoted as B)
CCCN1C(=O)CN(C)C(=O)CNC(=O)[C@H]([C@@H](C)CC)NC(=O)[C@H](CC(C)C)N(C)C(=O)C[C@@H](C(=O)N2CCOCC2)N(C)C(=O)[C@H](C2CCCC2)N(C)C(=O)C2(CCCC2)NC(=O)[C@@H]2C[C@H](C)CN2C(=O)[C@H](CCc2ccc(C(F)(F)F)c(Cl)c2)NC(=O)CN(C)C(=O)[C@@H]1Cc1ccc(C(F)(F)F)cc1 [PP0449] ([NMeL]IG[Sar][NPrPhe(4-CF3)][Sar][hPhe(3-Cl-4-CF3)][Pro(4S-Me)][Ac5c][NMeGly(cPent)][NMeD]-Morpholide; lactam N-11)	C (A compound having a KD ratio of 0.1 or more and less than 3 is denoted as C)	C (A compound having a KD ratio of 0.1 or more and less than 3 is denoted as C)
CCCN1C(=O)CN(C)C(=O)CN(CC)C(=O)[C@H]([C@@H](C)CC)NC(=O)[C@H](CC(C)C)N(C)C(=O)C[C@@H](C(=O)N2CCOCC2)N(C)C(=O)[C@H](C2CCCC2)N(C)C(=O)C2(CCCC2)NC(=O)[C@@H]2CC(C)(C)CN2C(=O)[C@H](CCc2ccc(C(F)(F)F)c(Cl)c2)NC(=O)CN(C)C(=O)[C@@H]1Cc1ccc(C(F)(F)F)cc1 [PP0450] ([NMeL]I[NEtG][Sar][NPrPhe(4-CF3)][Sar][hPhe(3-Cl-4-CF3)][Pro(4,4-Me2)][Ac5c][NMeGly(cPent)][NMeD]-Morpholide; lactam N-11)	C (A compound having a KD ratio of 0.1 or more and less than 3 is denoted as C)	B (a compound having 3 or more and less than 10 is denoted as B)
CCCN1C(=O)CN(C)C(=O)[C@@H]2CCN2C(=O)[C@H]([C@@H](C)CC)NC(=O)[C@H](CC(C)C)N(C)C(=O)C[C@@H](C(=O)N2CCOCC2)N(C)C(=O)[C@H](C2CCCC2)N(C)C(=O)C2(CCCC2)NC(=O)[C@@H]2CC(C)(C)CN2C(=O)[C@H](CCc2ccc(C(F)(F)F)c(Cl)c2)NC(=O)CN(C)C(=O)[C@@H]1Cc1ccc(C(F)(F)F)cc1 [PP0452] ([NMeL]I[Aze][Sar][NPrPhe(4-CF3)][Sar][hPhe(3-Cl-4-CF3)][Pro(4,4-Me2)][Ac5c][NMeGly(cPent)][NMeD]-Morpholide; lactam N-11)	B (a compound having 3 or more and less than 10 is denoted as B)	B (a compound having 3 or more and less than 10 is denoted as B)
CCCN1C(=O)CN(C)C(=O)[C@@H]2CCN2C(=O)[C@H]([C@@H](C)CC)NC(=O)[C@H](CC(C)C)N(C)C(=O)C[C@@H](C(=O)N2CCOCC2)N(C)C(=O)[C@H](C2CCCC2)N(C)C(=O)C2(CCCC2)NC(=O)[C@@H]2C[C@H](C)CN2C(=O)[C@H](CCc2ccc(C(F)(F)F)c(Cl)c2)NC(=O)CN(C)C(=O)[C@@H]1Cc1ccc(C(F)(F)F)cc1 [PP0453] ([NMeL]I[Aze][Sar][NPrPhe(4-CF3)][Sar][hPhe(3-Cl-4-CF3)][Pro(4S-Me)][Ac5c][NMeGly(cPent)][NMeD]-Morpholide; lactam N-11)	C (A compound having a KD ratio of 0.1 or more and less than 3 is denoted as C)	B (a compound having 3 or more and less than 10 is denoted as B)
CCCN1C(=O)[C@@H]2CCN2C(=O)[C@H](C)N(C)C(=O)[C@H]([C@@H](C)CC)NC(=O)[C@H](CC(C)C)N(C)C(=O)C[C@@H](C(=O)N2CCOCC2)N(C)C(=O)[C@H](C2CCCC2)N(C)C(=O)C2(CCCC2)NC(=O)[C@@H]2CC(C)(C)CN2C(=O)[C@H](CCc2ccc(C(F)(F)F)c(Cl)c2)NC(=O)CN(C)C(=O)[C@@H]1Cc1ccc(C(F)(F)F)cc1 [PP0454] ([NMeL]I[NMeA][Aze][NPrPhe(4-CF3)][Sar][hPhe(3-Cl-4-CF3)][Pro(4,4-Me2)][Ac5c][NMeGly(cPent)][NMeD]-Morpholide; lactam N-11)	C (A compound having a KD ratio of 0.1 or more and less than 3 is denoted as C)	C (A compound having a KD ratio of 0.1 or more and less than 3 is denoted as C)
CCCN1C(=O)[C@@H]2CCN2C(=O)CN(C)C(=O)[C@H]([C@@H](C)CC)NC(=O)[C@H](CC(C)C)N(C)C(=O)C[C@@H](C(=O)N2CCOCC2)N(C)C(=O)[C@H](C2CCCC2)N(C)C(=O)C2(CCCC2)NC(=O)[C@@H]2CC(C)(C)CN2C(=O)[C@H](CCc2ccc(C(F)(F)F)c(Cl)c2)NC(=O)CN(C)C(=O)[C@@H]1Cc1ccc(C(F)(F)F)cc1 [PP0456] ([NMeL]I[Sar][Aze][NPrPhe(4-CF3)][Sar][hPhe(3-Cl-4-CF3)][Pro(4,4-Me2)][Ac5c][NMeGly(cPent)][NMeD]-Morpholide; lactam N-11)	C (A compound having a KD ratio of 0.1 or more and less than 3 is denoted as C)	C (A compound having a KD ratio of 0.1 or more and less than 3 is denoted as C)
CCCN1C(=O)[C@@H]2CCN2C(=O)CN(C)C(=O)[C@H]([C@@H](C)CC)NC(=O)[C@H](CC(C)C)N(C)C(=O)C[C@@H](C(=O)N2CCOCC2)N(C)C(=O)[C@H](C2CCCC2)N(C)C(=O)C2(CCCC2)NC(=O)[C@@H]2C[C@H](C)CN2C(=O)[C@H](CCc2ccc(C(F)(F)F)c(Cl)c2)NC(=O)CN(C)C(=O)[C@@H]1Cc1ccc(C(F)(F)F)cc1 [PP0457] ([NMeL]I[Sar][Aze][NPrPhe(4-CF3)][Sar][hPhe(3-Cl-4-CF3)][Pro(4S-Me)][Ac5c][NMeGly(cPent)][NMeD]-Morpholide; lactam N-11)	B (a compound having 3 or more and less than 10 is denoted as B)	C (A compound having a KD ratio of 0.1 or more and less than 3 is denoted as C)
